The test system of series [1] is normal HSPCs. Nature of the series: Normal cord blood HSPC engrafted mice. Format: in vivo, human cells in Rag2-/-γc-/- mice. The method, then: To determine the sensitivity of normal HSPCs to Rebecsinib, human cord blood-derived CD34+ cells were transplanted into Rag2^−/−γc^−/− mice. After human cell engraftment was established (6 to 12 weeks), mice were treated with Rebecsinib twice-weekly for two weeks at doses equivalent to the maximum doses selected for in vivo LSC assays. The frequency of CD45^+ hematopoietic cells in bone marrow, peripheral blood, spleen, and thymus were unchanged between vehicle and Rebecsinib-treated groups that received a dose of 10 mg/kg. […] Thus, a dose of 10 mg/kg in mice is sufficient to reduce in vivo sAML LSC burden while sparing normal HSPC development.
In humanized mouse models, sAML cells (CD34^+) from two unique […] patient samples that were splicing factor mutated or unmutated were utilized, including sAML50261 and sAML2008-5.^14 For in vivo efficacy and therapeutic index studies, sAML CD34^+ cells, or normal human cord blood-derived or aged bone marrow-derived HSPCs (CD34^+), were transplanted (50,000-200,000 cells per mouse) intrahepatically into neonatal Rag2^−/−γc^−/− mice, or intravenously into adult NSG-SGM3 mice (Jackson Laboratories, Bar Harbor, ME). A subset of experiments was performed with normal aged bone marrow cells that were transduced with the lentiviral ADAR1 nanoluc-GFP reporter vector prior to transplant. For transplantation into adult mice, animals were irradiated with ^137Cs at a dose of 150 cGy 24 hr before IV transplantation. After engraftment levels reached >1% human CD45^+ hematopoietic cells in the peripheral blood, animals were distributed among treatment groups for treatment with Rebecsinib or vehicle control essentially as previously described, with an increased dosing regimen of twice weekly (versus once weekly in prior studies)^14 and an optimized in vivo formulation (2% w/w EtOH, 5% w/v KOLLIPHOR HS™ 15 in 0.9% saline). For animals that received transplants of cells transduced with the lentiviral ADAR1 nanoluc-GFP reporter, mice were imaged 15 weeks after transplant on the IVIS 200, as previously described.^79 Following treatment with Rebecsinib (five intravenous doses total over a two-week period), hematopoietic tissues (peripheral blood, bone marrow, spleens) were collected and analyzed by flow cytometry as previously described.^14 For splice isoform-specific qRT-PCR or RNA-seq analyses on cells from in vivo studies, human CD34^+ LSC from bone marrows and spleens of engrafted mice were isolated by magnetic bead separation (Miltenyi Biotec).

For series [2], the system named is MCL1-L, BCL-XL, BCL-2, SF3B1, SF3B3 transcripts. Nature of the series: Splicing effects on LSC-enriched anti-apoptotic transcripts and splicing factor gene products. Format: cell-based, human. The method, then:
For quantitative analysis of splice isoform expression, RNA editing rates, and whole gene expression by qRT-PCR, cells or tissue fragments were harvested in RNA lysis buffer and total RNA was extracted using RNeasy mini or micro extraction kits (QIAGEN, Germantown, MD) following the manufacturer's protocol including a DNase incubation step to digest any trace genomic DNA present. Levels of ADAR1 variants and LSC-specific transcripts were quantified by qRT-PCR as previously described.^14 RNA-editing site-specific qRT-PCR (RESSqPCR) was performed for variants in AZIN1 transcripts.^53 Additional species-specific primers were also designed to quantify intron retention rates in cells treated with Rebecsinib as a biomarker of response to RNA splicing modulation. Specifically, for the two-step SYBR-green based assays, as previously described,^7,14,53 100-1000 ng of RNA were subjected to cDNA synthesis using the SUPERSCRIPT III™ (ThermoFisher Scientific) kit followed by qRT-PCR using SYBR GreenER (ThermoFisher Scientific) master mix according to the manufacturer's recommended procedures. qRT-PCR was performed using SYBR GREENER SUPER MIX™ (Life Technologies) on BioRad iQ5™, C1000 TOUCH™, or BioRad CFX384™ instruments. […] Relative mRNA expression values were calculated using the 2^−ΔCT method, with normalization to untreated or vehicle-treated controls.^54

The subject of series [3] is human CD45+ADAR1-GFP+ cells and CD45+CD3+ADAR1-GFP+ cells. In words: aNBM SAK378 PDX mice, flow cytometry. It is filed as in vivo, human cells in NSG-SGM3 mice. The conditions noted are these: 10 mg/kg, IV, BIW×2. The method, then: Aged normal bone marrow (aNBM) PDX mouse models SAK378 were established with 80-100K ADAR1-reporter transduced CD34+ cells by IV injection into NSG-SGM3 mice at the age of 5-6 weeks. When the models were ready, the mice were treated with either vehicle or rebecsinib (10 mg/kg, IV, BIW×2). The mice were sacrificed upon completion of the dosing plan, and single cells from PB, SP, and BM were collected and stained with mAbs for CD45, CD3, CD14, and CD19.
A general note: A flow cytometer gives signals particle by particle.

Series [4] concerns AZIN1 transcript. In words: AZIN1 transcript editing by RESSqPCR in TF1a cells. Format: cell-based, human. The note with it: shADAR1-transduced cells treated with Rebecsinib compared with vehicle controls. From the text: For lentivirus-mediated knockdown of human ADAR1 in ADAR1 activation and RNA editing biomarker studies of the nanoluc-GFP reporter and endogenous transcripts, human leukemia cells were stably transduced with the lentiviral shRNA vectors targeting ADAR1 (shADAR1) or scrambled control (shCtrl) to ablate endogenous ADAR1 expression. The shRNA plasmids targeting ADAR1 (shADAR1) as well as the scrambled control (shCtrl) were purchased from VectorBuilder (Chicago, IL) (shCtrl: […] (SEQ ID NO:3) and shADAR1: […]) (SEQ ID NO:4). […] Viral titers were assessed by qRT-PCR and transduction efficiency was tested in 293T cells. […]
For quantitative analysis of splice isoform expression, RNA editing rates, and whole gene expression by qRT-PCR, cells or tissue fragments were harvested in RNA lysis buffer and total RNA was extracted using RNeasy mini or micro extraction kits (QIAGEN, Germantown, MD) following the manufacturer's protocol including a DNase incubation step to digest any trace genomic DNA present. Levels of ADAR1 variants and LSC-specific transcripts were quantified by qRT-PCR as previously described.^14 RNA-editing site-specific qRT-PCR (RESSqPCR) was performed for variants in AZIN1 transcripts.^53 Additional species-specific primers were also designed to quantify intron retention rates in cells treated with Rebecsinib as a biomarker of response to RNA splicing modulation. […]
In general terms: Real-time PCR tracks product formation cycle by cycle.

In series [5] the test system is phospho-STAT3. Nature of the series: phospho-STAT3 intracellular flow cytometry. It is filed as cell-based, human. The method, then:
Flow cytometry for stem and progenitor cell surface antibody staining was performed as previously described.^14 For phospho-flow, a subset of samples was fixed and permeabilized, then blocked and stained with APC-conjugated ADAR1p150 antibody (cat ab269444, 1:25) and pSTAT3 APC (cat 17-9033-42, 1:10) (Table S2). Fractions were analyzed with the BD LSR FORTESSA™ (Sanford Consortium for Regenerative Medicine Stem Cell Core) and FLOWJO™ software (TreeStar, Ashland, OR).

The record followed here is patent US20260364072A1, “METHODS FOR PROMOTING EXPANSION OF HUMAN CD34+ CELLS IN VIVO AND FOR PROMOTING NEURAL REGENERATION” (THE REGENTS OF THE UNIVERSITY OF CALIFORNIA, priority 2023, published 2026).

As for `CC[C@H](OC)[C@@H](C)[C@H]1O[C@@H]1[C@@H](O)[C@H](C)/C=C/C=C(\C)[C@H]1OC(=O)C[C@H](O)CC[C@@](C)(O)[C@@H](OC(C)=O)/C=C/[C@@H]1C` [Rebecsinib], the “frequency of CD45+ hematopoietic cells in bone marrow, peripheral blood, spleen, and thymus” value in series [1] (10 mg/kg, twice-weekly for two weeks) is reported as “unchanged”. In series [1] (20 mg/kg), the “human CD19+ cells in peripheral blood” value is “reduction”; the “human CD45+ and CD19+ cells in bone marrow or spleen” value is listed as “not in the bone marrow or spleen”; the “human CD45+ cells in peripheral blood” value is “reduction”. Further, the systemic toxicity entry in series [1] (2 weeks of dosing at 10 or 20 mg/kg) is given as “no evidence of Rebecsinib-related systemic toxicity”. In addition, in series [1] (vs vehicle), the “CD19+ B cells in bone marrow, peripheral blood, or spleen” value was “no significant reduction” and the “human CD3+ T cells in thymus or peripheral blood” value is on record as “no significant reduction”. Besides, in series [2], the “LSC-enriched anti-apoptotic transcripts, including MCL1-L, BCL-XL, and BCL-2” value is given as “reduces”; the “intron retention in splicing factor gene products, such as SF3B1 and SF3B3” value is “induces marked intron retention”. Besides, in series [3], the “CD45+CD3+GFP+ cells in PB, SP, and BM” value was “spares the cell populations”; the “CD45+GFP+ cells in PB, SP, and BM” value is reported as “spares the cell populations”. Further, the “AZIN1 transcript editing activity (RESSqPCR)” value in series [4] is “low levels of AZIN1 transcript editing activity”. Besides, in series [5], the phospho-STAT3 expression result was “reduced phospho-STAT3 expression”.
